These results are taken from PMC2947195 (Biochemical Journal, 2010).

The structures appear in SMILES notation. Substitutions are numbered along the chain they refer to. Read-outs that look alike come from different tables or passages of the source.

What all share (experiment): Competitive inhibition of [3H]MTX uptake
Holding throughout (format): cell-based

Test [1] concerns the target T1, S313T hRFC (Homo sapiens, UniProt P41440, S313T).
T1 sequence (P41440 1-591 S313T): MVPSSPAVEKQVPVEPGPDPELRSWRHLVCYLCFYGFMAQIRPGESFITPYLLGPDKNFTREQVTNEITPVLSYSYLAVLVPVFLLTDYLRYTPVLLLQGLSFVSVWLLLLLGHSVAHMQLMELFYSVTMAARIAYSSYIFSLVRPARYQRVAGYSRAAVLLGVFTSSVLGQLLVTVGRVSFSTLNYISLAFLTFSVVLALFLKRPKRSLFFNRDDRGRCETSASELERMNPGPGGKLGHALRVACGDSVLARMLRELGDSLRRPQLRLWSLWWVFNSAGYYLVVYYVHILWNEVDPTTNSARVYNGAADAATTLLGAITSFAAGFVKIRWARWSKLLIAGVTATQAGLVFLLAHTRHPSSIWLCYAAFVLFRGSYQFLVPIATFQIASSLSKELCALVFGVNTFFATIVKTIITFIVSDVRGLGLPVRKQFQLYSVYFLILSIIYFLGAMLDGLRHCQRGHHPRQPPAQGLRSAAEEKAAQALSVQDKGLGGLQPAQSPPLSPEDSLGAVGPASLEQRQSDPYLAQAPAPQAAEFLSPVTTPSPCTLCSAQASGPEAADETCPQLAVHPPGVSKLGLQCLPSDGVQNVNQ
Particulars: for decrease of Ki compared with wt hRFC: S313T hRFC versus wt hRFC.

The target of test [2] is T2, wt hRFC (Homo sapiens, UniProt P41440).
T2 sequence (P41440 1-591): T1 sequence (P41440 1-591 S313T) with T313S

For test [3], the target named is T3, S313A hRFC (Homo sapiens, UniProt P41440, S313A).
T3 sequence (P41440 1-591 S313A): T1 sequence (P41440 1-591 S313T) with T313A

Consider `Nc1nc(N)c2nc(CNc3ccc(C(=O)N[C@@H](CCC(=O)O)C(=O)O)cc3)cnc2n1` [Aminopterin, aminopterin], for which the figures for the Ki in test [1], in test [2] and in test [3] were 2.75 ± 0.15 µM, 7.03 ± 0.02 µM and 3.43 ± 0.58 µM, respectively. Also, the “decrease of Ki compared with wt hRFC” value in test [1] and in test [3] (S313A hRFC versus wt hRFC) was 2–3 fold in each case.

Consider `CCC(Cc1cnc2nc(N)nc(N)c2n1)c1ccc(C(=O)N[C@@H](CCC(=O)O)C(=O)O)cc1` (stereo partly drawn) [Edatrexate, 10-ethyl-10-deazaaminopterin], for which the Ki in test [1] came to 2.23 ± 0.38 µM; in test [2] it was 5.48 ± 1.1 µM; in test [3], 4.25 ± 0.53 µM.

In the case of `Nc1nc(=O)c2nc(CNc3ccc(C(=O)N[C@@H](CCC(=O)O)C(=O)O)cc3)cnc2[nH]1` [Folic acid, folic acid], the Ki came to 237 ± 58.4 µM in test [1], 194 ± 5.45 µM in test [2] and 435 ± 82.7 µM in test [3]. In addition, the “increase of Ki compared with wt carrier” value in test [3] (S313A hRFC versus wt hRFC) is listed as ~ 2 fold.

With `Cc1nc2ccc3ccc(CNc4ccc5c(c4)CN([C@@H](CCC(=O)O)C(=O)O)C5=O)cc3c2c(=O)[nH]1` [GW1843U89, (S)-2-[5-({[1,2-dihydro-3-methyl-1-oxo-benzo(f)quinazolin-9-yl]methyl}amino)1-oxo-2-isoindolinyl] glutaric acid], the figures for the Ki in test [1], in test [2] and in test [3] were 0.75 ± 0.06 µM, 2.1 ± 0.01 µM and 2.61 ± 0.5 µM, respectively. In addition, the “decrease of Ki compared with wt hRFC” value in test [1] was 2–3 fold.

In the case of `Nc1nc2c(c(=O)[nH]1)N(C=O)C(CNc1ccc(C(=O)N[C@@H](CCC(=O)O)C(=O)O)cc1)CN2` (stereo partly drawn) [Leucovorin, (6R,S)-5-formyl tetrahydrofolate], the Ki was 7.74 ± 0.66 µM in test [1], 18.7 ± 1.54 µM in test [2] and 12.3 ± 0.88 µM in test [3]. Further, the “decrease of Ki compared with wt hRFC” value in test [1] and in test [3] (S313A hRFC versus wt hRFC) was 2–3 fold in each case.

With `Nc1nc(N)c2nc(CNc3ccc(C(=O)N[C@@H](CCCNC(=O)c4ccccc4C(=O)O)C(=O)O)cc3)cnc2n1` [PT523, N^α-(4-amino-4-deoxypteroyl)-N^δ-hemiphthaloyl-L-ornithine], the Ki was found to be 2.86 ± 0.85 µM in test [1] (S313T hRFC, inhibition of [3H]MTX (1 μM) uptake, Dixon plots, mean±S.E.M., n=3); 4.56 ± 0.97 µM in test [2] (wt hRFC, inhibition of [3H]MTX (1 μM) uptake, Dixon plots, mean±S.E.M., n=3); 3.13 ± 0.17 µM in test [3] (S313A hRFC, inhibition of [3H]MTX (1 μM) uptake, Dixon plots, mean±S.E.M., n=3).

Take `Nc1nc2[nH]cc(CCc3ccc(C(=O)N[C@@H](CCC(=O)O)C(=O)O)cc3)c2c(=O)[nH]1` [Pemetrexed, N-{4-[2(2-amino-3,4-dihydro-4-oxo-7H-pyrrolo[2,3-d]pyrimidin-5-yl)ethyl]benzoyl}-L-glutamic acid]: the “decrease of Ki compared with wt hRFC” value in test [1] and in test [3] (S313A hRFC versus wt hRFC) was 2–3 fold each time.

Take `Cc1nc2ccc(CN(C)c3ccc(C(=O)N[C@@H](CCC(=O)O)C(=O)O)s3)cc2c(=O)[nH]1` [Raltitrexed, N-{5-[N-(3,4-dihydro-2methyl-4-oxyquinazolin-6-ylmethyl)-N-methyl-amino]-2-thienoyl}-L-glutamic acid]: the “decrease of Ki compared with wt hRFC” value in test [1] is given as 2–3 fold.

For `C#CCN(Cc1cc2c(=O)[nH]c(C)nc2cc1C)c1ccc(C(=O)N[C@@H](CCc2nnn[nH]2)C(=O)O)c(F)c1` [ZD9331, (2S)-2-{O-fluoro-p-[N-(2,7dimethyl-4-oxo-3,4-dihydro-quinazolin-6-ylmethyl)-N-(prop-2ynyl)amino]benzamido}-4-(tetrazol-5-yl)-butyric acid], the Ki amounted to 2.31 ± 0.18 µM in test [1], 4.42 ± 0.93 µM in test [2] and 2.96 ± 0.52 µM in test [3].
